Assay results from patent US8796264B2, “2-piperazin-1-yl-4H-1,3-benzothiazin-4-one derivatives and their use for the treatment of mammalian infections” (Ecole Polytechnique Federale de Lausanne (EPFL), priority 2010, dated 2014).
In brackets after ≈: the same amount, converted by molar mass.

Legend:
[1] = system: M. tuberculosis strain H37Rv; assay: In vivo efficacy in the acute murine TB model; design: species or system mice
[2] = Intrinsic clearance in liver microsomes; settings: 1 μg/mL with 0.1 mg microsomes, HPLC
Experimental: Next, PBTZ169 and BTZ043 were incubated at a concentration of 1 μg/mL with 0.1 mg of human or mouse liver microsomes (Invitrogen) in order to measure their intrinsic clearance. The relative amounts of the original compound remaining over time were determined by HPLC.

[3] = system: M. tuberculosis strain H37Rv; assay: In vivo efficacy in the chronic murine TB model; design: species or system mice; settings: INH 25 mg/kg
M. tuberculosis H37Rv = assay: In vitro inhibitory activity, resazurin reduction assay (MIC99); type: cell-based, Mycobacterium tuberculosis; settings: strain not stated
[4] = system: NfnB-overproducing mutant MN39; assay: Susceptibility of the NfnB-overproducing mutant MN39; type: cell-based, Mycobacterium smegmatis; settings: M. smegmatis NfnB-overproducing mutant
From the text: A second resistance mechanism to BTZ043 has been described in Mycobacterium smegmatis due to overproduction of the nitroreductase NfnB (Manina, G., et al. Mol Microbiol 2010. epub 2010/07/14).

HepG2 cells = assay: Cytotoxicity TC50, resazurin reduction assay; type: cell-based, human; settings: 72 h incubation
Experimental: (§1) The selectivity index (SI) of a compound provides a good indication of the potential tolerability of a drug candidate. […] The TC50 of PBTZ169 and BTZ043 were established using two human cell lines, the hepatocyte line HepG2 and the pneumocyte line A549, using the resazurin reduction assay after incubation with varying amounts of the compounds for 72 h. […] The respective MICs were 1 and 2 ng/ml for PBTZ169 and BTZ043. […] In clinical terms, PBTZ169 should be safer and better tolerated than BTZ043.

A549 cells = assay: Cytotoxicity TC50, resazurin reduction assay; type: cell-based, human; settings: 72 h incubation
Experimental: as §1

**Q.** For `C[C@H]1COC2(CCN(c3nc(=O)c4cc(C(F)(F)F)cc([N+](=O)[O-])c4s3)CC2)O1` [BTZ043, 2-[(2S)-2-methyl-1,4-dioxa-8-azaspiro[4.5]dec-8-yl]-8-nitro-6-(trifluoromethyl)-4H-1,3-benzothia-zin-4-one, reference compound], which “Log of CFU lungs” value ([1]; 4 weeks treatment, intragastric 5 times a week, compounds and BTZ043 50 mg/kg, isoniazid 25 mg/kg) is on record?
**A.** 4.78

**Q.** What about the “Medium longevity (days) M ± SEM” value ([1]; compounds and BTZ043 50 mg/kg, isoniazid 25 mg/kg) of the same molecule?
**A.** Alive at sacrifice

**Q.** And the “Result of treatment, macroscopic condition of the lungs” value ([1]; treatment for prescribed time)?
**A.** marked improvement

**Q.** What about the “Intrinsic Clearance (Clint), Human liver microsomes” value [2] of the same molecule?
**A.** 16.2 μL/min/mg of protein

**Q.** What about the “Intrinsic Clearance (Clint), Mouse liver microsomes” value [2] of the same molecule?
**A.** 10.3 μL/min/mg of protein

**Q.** What about the “Efficacy in reducing CFU compared to INH” value [3] of the same molecule?
**A.** slightly inferior to INH

**Q.** And the “MIC used for the selectivity index” value (M. tuberculosis H37Rv)?
**A.** 0.002 mg/L

**Q.** And the “Increase in the MIC for MN39 relative to the wild type parental strain” value [4]?
**A.** 6 fold

**Q.** And the “TC50 against HepG2 cells” value (HepG2 cells)?
**A.** 6.3 mg/L (≈ 14.6 µM)

**Q.** And the “TC50 against A549 cells” value (A549 cells)?
**A.** 16.3 mg/L (≈ 37.8 µM)
